Tests used:
[1] = molecular target: T1, B1R receptor of the rat (rB1R) (Rattus norvegicus, UniProt P97583); assay: FLIPR Ca2+ functional study on bradykinin receptor 1, rB1R cells (CHO K1); type: cell-based; details: 10 μM test substance; CHO K1 cells with rat B1R; agonist Des-Arg9-bradykinin at EC80; read-out: B1R antagonism, rat [10 μM] % inhibition
T1 construct: expressed in transfected cells; host or cells: CHO K1 cells, stably transfected
T1 sequence (P97583 1-337): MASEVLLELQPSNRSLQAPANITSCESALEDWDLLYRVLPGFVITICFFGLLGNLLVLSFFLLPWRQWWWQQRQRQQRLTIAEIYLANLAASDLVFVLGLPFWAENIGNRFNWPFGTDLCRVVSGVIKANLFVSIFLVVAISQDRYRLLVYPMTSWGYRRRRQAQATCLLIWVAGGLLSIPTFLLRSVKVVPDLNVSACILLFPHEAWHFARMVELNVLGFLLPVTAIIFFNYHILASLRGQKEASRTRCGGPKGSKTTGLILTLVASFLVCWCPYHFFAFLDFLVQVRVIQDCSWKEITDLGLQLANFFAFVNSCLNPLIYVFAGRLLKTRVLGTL
Protocol: (§1) The agonistic or antagonistic activity of substances can be quantified on the bradykinin receptor 1 (B1R) of the species human and rat using ectopically expressing cell lines (CHO K1 cells) and with the aid of a Ca^2+-sensitive dye (Fluo-4) using a fluorescent imaging plate reader (FLIPR). The indication in % activation is based on the Ca^2+ signal after addition of Lys-Des-Arg^9-bradykinin (0.5 nM) or Des-Arg^9-bradykinin (100 nM). Antagonists lead to suppression of the Ca^2+ influx after the addition of the agonist. % Inhibition compared with the maximum achievable inhibition is indicated.
(§2) The agonistic or antagonistic activity of substances can be determined on the bradykinin receptor 1 (B1R) of the species human and rat using the following assay. According to this assay, the Ca^2+ influx through the channel is quantified with the aid of a Ca^2+-sensitive dye (Fluo-4 type, Molecular Probes Europe BV, Leiden, Netherlands) using a Fluorescent Imaging Plate Reader (FLIPR, Molecular Devices, Sunnyvale, USA).
(§3) Chinese hamster ovary cells (CHO K1 cells) which have been stably transfected with the human B1R gene (hB1R cells) or with the B1R gene of the rat (rB1R cells) are used. For functional studies, the cells are plated out on black 96-well plates having a clear base (BD Biosciences, Heidelberg, Germany or Greiner, Frickenhausen, Germany) in a density of 20,000-35,000 cells/well. The cells are left overnight at 37° C. and with 5% CO2 in culture medium (hB1R cells: Nutrient Mixture Ham's F12, Gibco Invitrogen GmbH, Karlsruhe, Germany or DMEM, Sigma-Aldrich, Taufkirchen, Germany; rB1R cells: D-MEM/F12, Gibco Invitrogen GmbH, Karlsruhe, Germany), with 10 vol. % FBS (fetal bovine serum, Gibco Invitrogen GmbH, Karlsruhe, Germany or PAN Biotech GmbH, Aidenbach, Germany). On the following day, the cells are loaded for 60 minutes at 37° C. with 2.13 μM Fluo-4 (Molecular Probes Europe BV, Leiden, Netherlands) in HBSS buffer (Hank's buffered saline solution, Gibco Invitrogen GmbH, Karlsruhe, Germany) […] (Sigma-Aldrich, Taufkirchen, Germany) and 10 mM HEPES (Sigma-Aldrich, Taufkirchen, Germany). The plates are then washed twice with HBSS buffer, and HBSS buffer additionally containing 0.1% BSA (bovine serum albumin; Sigma-Aldrich, Taufkirchen, Germany), 5.6 mM glucose and 0.05% gelatin (Merck KGaA, Darmstadt, Germany) is added to the plates. After incubation for a further 20 minutes at room temperature, the plates are inserted into the FLIPR for Ca^2+ measurement. Alternatively, washing is carried out with buffer A (15 mM HEPES, 80 mM NaCl, 5 mM KCl, 1.2 mM CaCl2, 0.7 mM MgSO4, 2 g/l glucose, 2.5 mM probenecid) followed by loading with buffer A with added 2.5 μM Fluo-4 and 0.025% Pluronic F127 (Sigma-Aldrich, Taufkirchen, Germany). The cells are then washed twice with buffer A and incubated for 30 minutes at room temperature with buffer A additionally containing 0.05% BSA and 0.05% gelatin and are then inserted into the FLIPR for Ca^2+ measurement. The Ca^2+-dependent fluorescence is measured before and after the addition of substances (λex=488 nm, λem=540 nm). Quantification is carried out by measuring the highest fluorescence intensity (FC, fluorescence counts) over time.
(§4) The FLIPR protocol consists of two substance additions. Test substances (10 μM) are first pipetted onto the cells and the Ca^2+ influx is compared with the control (hB1R: Lys-Des-Arg^9-bradykinin >=50 nM; rB1R: Des-Arg^9-bradykinin 10 μM). This gives the activation in %, based on the Ca^2+ signal after addition of Lys-Des-Arg^9-bradykinin (>=50 nM) or Des-Arg^9-bradykinin (10 μM). After 10-20 minutes' incubation, Lys-Des-Arg^9-bradykinin (hB1R) or Des-Arg^9-bradykinin (rB1R) is applied in the concentration of the EC80, and the influx of Ca^2+ is likewise determined. Antagonists lead to suppression of the Ca^2+ influx. The % inhibition compared with the maximum achievable inhibition is calculated. […]

[2] = molecular target: T2, human B1R receptor (hB1R) (Homo sapiens, UniProt P46663); assay: FLIPR Ca2+ functional study on bradykinin receptor 1, hB1R cells (CHO K1); type: cell-based; details: CHO-K1, 10 μM test substance; CHO K1 cells with human B1R; agonist Lys-Des-Arg9-bradykinin at EC80; read-out: B1R antagonism, human [10 μM] % inhibition
T2 construct: expressed in transfected cells; host or cells: CHO K1 cells, stably transfected
T2 sequence (P46663 1-353): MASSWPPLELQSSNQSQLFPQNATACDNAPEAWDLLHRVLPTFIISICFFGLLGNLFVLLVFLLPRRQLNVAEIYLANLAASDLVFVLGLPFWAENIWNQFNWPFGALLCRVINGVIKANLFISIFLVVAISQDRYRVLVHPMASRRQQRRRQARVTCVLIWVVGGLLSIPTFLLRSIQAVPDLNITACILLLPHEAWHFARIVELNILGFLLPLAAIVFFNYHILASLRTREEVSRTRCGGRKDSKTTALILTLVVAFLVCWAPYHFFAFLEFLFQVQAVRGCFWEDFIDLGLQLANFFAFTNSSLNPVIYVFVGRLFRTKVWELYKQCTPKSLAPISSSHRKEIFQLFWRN
Protocol: as §1, §2, §3, §4

inhibition at 10 µM [1] [%]	inhibition at 10 µM [2] [%]	SMILES
98	46	COc1cc(C)c(S(=O)(=O)N2CCCc3ccc(CC(=O)N4CCC5(CCC(Oc6ccncc6)CC5)CC4)cc32)c(C)c1 [Compound G-30, 2-(1-(4-Methoxy-2,6-dimethylphenylsulfonyl)-1,2,3,4-tetrahydroquinolin-7-yl)-1-(9-(pyridin-4-yloxy)-3-azaspiro[5.5]undecan-3-yl)ethanone]
102	91	COc1cc(C)c(S(=O)(=O)N2CCCc3ccc(CC(=O)N4CCC5(CCC(N6CCC6)CC5)CC4)cc32)c(C)c1 [Compound G-32, 1-(9-(Azetidin-1-yl)-3-azaspiro[5.5]undecan-3-yl)-2-(1-(4-methoxy-2,6-dimethylphenylsulfonyl)-1,2,3,4-tetrahydroquinolin-7-yl)ethanone]
73	65	COc1cc(C)c(S(=O)(=O)N2CCCc3ccc(CC(=O)N4CCC5(CC4)CC(c4ccncc4)=NO5)cc32)c(C)c1 [Compound G-33, 2-(1-(4-Methoxy-2,6-dimethylphenylsulfonyl)-1,2,3,4-tetrahydroquinolin-7-yl)-1-(3-(pyridin-4-yl)-1-oxa-2,8-diazaspiro[4.5]dec-2-en-8-yl)ethanone]
86	18	COc1cc(C)c(S(=O)(=O)N2CCCc3ccc(CC(=O)N4CCC5(CCC(N6CC(F)(F)C6)CC5)CC4)cc32)c(C)c1 [Compound G-34, 1-(9-(3,3-Difluoroazetidin-1-yl)-3-azaspiro[5.5]undecan-3-yl)-2-(1-(4-methoxy-2,6-dimethylphenylsulfonyl)-1,2,3,4-tetrahydroquinolin-7-yl)ethanone]
101	79	O=C(Cc1ccc2c(c1)N(S(=O)(=O)c1ccc(OC(F)(F)F)cc1Cl)CCC2)N1CCC2(CC1)CCN(c1ccncc1)CC2 [Compound G-35, 2-(1-(2-Chloro-4-(trifluoromethoxy)phenylsulfonyl)-1,2,3,4-tetrahydroquinolin-7-yl)-1-(9-(pyridin-4-yl)-3,9-diazaspiro[5.5]undecan-3-yl)ethanone]
99	99	COc1cc(C)c(S(=O)(=O)N2CCc3cccc(C(=O)N4CCC5(CC4)CCN(c4ccncc4)CC5)c3C2)c(C)c1 [Compound G-36, (2-(4-Methoxy-2,6-dimethylphenylsulfonyl)-1,2,3,4-tetrahydroisoquinolin-8-yl)(9-(pyridin-4-yl)-3,9-diazaspiro[5.5]undecan-3-yl)methanone]
90	99	Cc1cccc(Cl)c1S(=O)(=O)N1CCc2cccc(C(=O)N3CCC4(CC3)CCN(c3ccncc3)CC4)c2C1 [Compound G-37, (2-(2-Chloro-6-methylphenylsulfonyl)-1,2,3,4-tetrahydroisoquinolin-8-yl)(9-(pyridin-4-yl)-3,9-diazaspiro[5.5]undecan-3-yl)methanone]
91	97	O=C(c1cccc2c1CN(S(=O)(=O)c1cccc(Cl)c1Cl)CC2)N1CCC2(CC1)CCN(c1ccncc1)CC2 [Compound G-38, (2-(2,3-Dichlorophenylsulfonyl)-1,2,3,4-tetrahydroisoquinolin-8-yl)(9-(pyridin-4-yl)-3,9-diazaspiro[5.5]undecan-3-yl)methanone]
89	99	COc1cc(C)c(S(=O)(=O)N2CCc3ccc(CC(=O)N4CCC5(CC4)CCN(c4ccncc4)CC5)cc3C2)c(C)c1 [Compound G-39, 2-(2-(4-Methoxy-2,6-dimethylphenylsulfonyl)-1,2,3,4-tetrahydroisoquinolin-7-yl)-1-(9-(pyridin-4-yl)-3,9-diazaspiro[5.5]undecan-3-yl)ethanone]
102	100	COc1cc(C)c(S(=O)(=O)N2CCn3cc(C(=O)N4CCC5(CC4)CCN(c4ccncc4)CC5)nc3C2)c(C)c1 [Compound G-40, (7-(4-Methoxy-2,6-dimethylphenylsulfonyl)-5,6,7,8-tetrahydroimidazo[1,2-a]pyrazin-2-yl)(9-(pyridin-4-yl)-3,9-diazaspiro[5.5]undecan-3-yl)methanone]
90	99	O=C(/C=C/c1ccccc1Cl)N1CCc2ccc(C(=O)N3CCC4(CC3)CCN(c3ccncc3)CC4)cc2C1 [Compound G-41, 3-(2-Chlorophenyl)-1-(7-(9-(pyridin-4-yl)-3,9-diazaspiro[5.5]undecane-3-carbonyl)-3,4-dihydroisoquinolin-2(1H)-yl)prop-2-en-1-one]
102	100	O=C(c1ccc2c(c1)CN(C(=O)c1ccc(Cl)s1)CC2)N1CCC2(CC1)CCN(c1ccncc1)CC2 [Compound G-42, (5-Chlorothiophen-2-yl)(7-(9-(pyridin-4-yl)-3,9-diazaspiro[5.5]undecane-3-carbonyl)-3,4-dihydroisoquinolin-2(1H)-yl)methanone]
102	99	O=C(Cc1ccccc1Cl)N1CCc2ccc(C(=O)N3CCC4(CC3)CCN(c3ccncc3)CC4)cc2C1 [Compound G-43, 2-(2-Chlorophenyl)-1-(7-(9-(pyridin-4-yl)-3,9-diazaspiro[5.5]undecane-3-carbonyl)-3,4-dihydroisoquinolin-2(1H)-yl)ethanone]
62	99	O=C(c1ccc(Cl)s1)N1CCc2cccc(C(=O)N3CCC4(CC3)CCN(c3ccncc3)CC4)c2C1 [Compound G-44, (5-Chlorothiophen-2-yl)(8-(9-(pyridin-4-yl)-3,9-diazaspiro[5.5]undecane-3-carbonyl)-3,4-dihydroisoquinolin-2(1H)-yl)methanone]
97	97	O=C(NCc1ccccc1Cl)N1CCc2ccc(C(=O)N3CCC4(CC3)CCN(c3ccncc3)CC4)cc2C1 [Compound G-45, N-(2-Chlorobenzyl)-7-(9-(pyridin-4-yl)-3,9-diazaspiro[5.5]undecane-3-carbonyl)-3,4-dihydroisoquinoline-2(1H)-carboxamide]

Source: US8357717B2, “Spiro group-containing amide compounds having bradykinin 1 receptor (B1R) activity” (Gruenenthal GmbH, priority 2009, dated 2013)
